From patent US20240269170A1, “Treatment of Inflammatory Conditions or Diseases” (Queen Mary University of London, priority 2021, published 2024) come the findings set out here.

The subject of this assay is arthritic femur heads. Put plainly: Organ culture of arthritic femur heads with monocyte-derived macrophages, Safranin-O staining. To be noted: monocytes incubated with 10 μM RG108 for 45 min before 1 nM MCTR3. It counts as cell-based, mouse. The procedure: FIG. 6: Arg-1 mediates the anti-inflammatory and cartilage protective activities of MCTR3-trained monocytes. (A,B) Femur heads and bone marrow-derived monocytes were collected 5 days following the induction of arthritis in C57BL/6 mice. Femur heads were incubated in serum free DMEM high glucose containing 1% insulin-transferrin-selenium for 48 hours and then in DMEM containing 10% FBS and 10 ng/ml IL-1B for 4 days. Monocytes were incubated with vehicle (PBS+0.1% EtOH) or 1 nM MCTR3 for 24 hours, then differentiated to monocyte-derived macrophages. Two days after the initiation of differentiation, cells were transfected with control siRNA or siRNA against Arg-1. […] Tissues were then collected and glycosaminoglycan content was evaluated using Safranin-O staining. (A) Representative images and (B) quantitation of Safranin-O staining. […] Statistical differences were evaluated using Wilcoxon signed rank test when assessing for differences vs Vehicle group and using one-way ANOVA and Kruskal Wallis post hoc test when evaluating differences vs MCTR3 treated group.
FIG. 12: DNMT enzyme inhibition reverses the ability of MCTR3 to upregulate Arg-1 in MDM and the cartilage protective activities of MCTR3-trained monocytes. […] The proteoglycan concentrations in the femur heads were assessed using Safranin O staining. […] Statistical differences were evaluated using one-sample Wilcoxon signed rank test. […]

As to `O=C(O)C(Cc1c[nH]c2ccccc12)N1C(=O)c2ccccc2C1=O` (stereo not shown) [RG108], the “cartilage protective activities of MCTR3-trained monocytes” value is reported as “reverses”.
